Data from the supplement of paper PMC10307832.

Key:
Assay in all cases: relative viability (nuclei count vs DMSO), 5 days (fraction); higher = more cells survive
[1] = compound: Cn1c(Nc2ccc(C(F)(F)F)cc2)nc2cc(Oc3ccnc(-c4ncc(C(F)(F)F)[nH]4)c3)ccc21 [RAF265] + N=C(N)NC(=N)NCCc1ccccc1 [Phenformin] (partner 250 µM)
Outline: (§1)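 After 5 days of treatment, lung cancer cells in 1536-well plates were fixed and stained in a single step (final 0.05% Triton X-100, 1% formaldehyde, 1 ug/ml Hoechst) and their nuclei counted on 4× images. Treatment had been applied by pin tool the day after seeding as one drug alone or as a fixed anchor-drug dose with five library-drug doses (not always all listed) in √10 steps. Relative viability is the nuclei count of treated wells divided by that of vehicle wells, and values are medians of duplicate plates.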

[2] = compound: Cn1c(Nc2ccc(C(F)(F)F)cc2)nc2cc(Oc3ccnc(-c4ncc(C(F)(F)F)[nH]4)c3)ccc21 [RAF265] + O=C(c1cc(Cc2n[nH]c(=O)c3ccccc23)ccc1F)N1CCN(C(=O)C2CC2)CC1 [Olaparib] (partner 8 µM)
Outline: as §1

[3] = compound: Cn1c(Nc2ccc(C(F)(F)F)cc2)nc2cc(Oc3ccnc(-c4ncc(C(F)(F)F)[nH]4)c3)ccc21 [RAF265] + CC1(C)CCC(c2ccc(Cl)cc2)=C(CN2CCN(c3ccc(C(=O)NS(=O)(=O)c4ccc(N[C@H](CCN5CCOCC5)CSc5ccccc5)c(S(=O)(=O)C(F)(F)F)c4)cc3)CC2)C1 [Navitoclax] (partner 0.5 µM)
Outline: as §1

[4] = compound: C1=CC=C2C(=C1)C=CC(=C2SSC3=C(C=CC4=CC=CC=C43)O)O [IPA-3] + COc1cccc2cc(-c3nc([C@H]4CC[C@H](C(=O)O)CC4)n4ncnc(N)c34)[nH]c12 [OSI-027] (partner 0.5 µM)
Outline: as §1

With UMC-11 the relative viability ([1]; first compound 0.01 µM) was 0.354, the relative viability ([1]; first compound 0.03162 µM) was 0.332 and the relative viability ([1]; first compound 0.1 µM) was 0.32. For the same cell line, the relative viability ([1]; first compound 0.3162 µM) was 0.318, the relative viability ([1]; first compound 1 µM) was 0.259 and the relative viability ([2]; first compound 0.01 µM) was 0.408. It also gave a relative viability ([2]; first compound 0.03162 µM) of 0.368, a relative viability ([2]; first compound 0.1 µM) of 0.966 and a relative viability ([2]; first compound 0.3162 µM) of 0.31. It also gave a relative viability ([2]; first compound 1 µM) of 0.329, a relative viability ([3]; first compound 0.01 µM) of 0.316 and a relative viability ([3]; first compound 0.03162 µM) of 0.326. For the same cell line, the relative viability ([3]; first compound 0.1 µM) was 0.299, the relative viability ([3]; first compound 0.3162 µM) was 0.322 and the relative viability ([3]; first compound 1 µM) was 0.327. For the same cell line, the relative viability ([4]; first compound 0.2 µM) was 0.5, the relative viability ([4]; first compound 0.6325 µM) was 0.49 and the relative viability ([4]; first compound 2 µM) was 0.426. For the same cell line, the relative viability ([4]; first compound 6.325 µM) was 0.458 and the relative viability ([4]; first compound 20 µM) was 0.502.
